Assay results: article PMC7226963, “CCN-Based Therapeutic Peptides Modify Pancreatic Ductal Adenocarcinoma Microenvironment and Decrease Tumor Growth in Combination with Chemotherapy” (Cells, 2020)
Like-named read-outs stand apart in the source and are kept apart here. Each block holds one molecule with its values, some of them ahead of it.

Key:
[1] = Gemcitabine and metabolites in tumor and plasma, with or without BLR200 (HPLC-MS); details: for Change of concentration (tumor/plasma ratio) in BLR200-treated mice: BLR200 10 µg/kg i.p. every other day from day 11, 4 treatments, gemcitabine 100 mg/kg i.v. single bolus day 17, 30 min and 1 h, n = 4, not statistically significant
Procedure: FC1199-bearing mice were treated i.p with BLR200 (10 µg/kg) from day 11 for a total of 4 treatments, every other day. On day 17, mice were treated with gemcitabine (100 mg/kg, i.v., single bolus). After 30 min and 1 h, plasma and tumors were collected for HPLC measurement of gemcitabine and metabolites. The plasma fraction added with 10 µL tetrahydrouridine (THU) 2.5 mg/mL was immediately separated by centrifugation at 3200× g for 15 min at 4 °C and stored at −20 °C until analysis. Tumors were immediately frozen in liquid nitrogen and stored at −20 °C until analysis. Extraction and analysis of gemcitabine (dFdc, dFdCTP, and dFdU) in tumors and plasma were carried out according to Bapiro et al. [27].
Briefly, tumors were weighted, spiked with 2′-deossicitidine as the internal standard (IS) at a final concentration of 1 ng/mg, and homogenized with ice-cold acetonitrile (ACN) 50% (v/v) containing THU 25 µg/mL in a Precellys Evolution homogenizer (Bertin Technologies S.A.S., Montigny-le-Bretonneux, France). Fifty microliters of homogenate were added with 200 µL ACN 50% (v/v), vortexed, and centrifuged at 13,200 rpm for 10 min at 4 °C. The supernatant was dried under N2 flux and the residue reconstituted with 100 µL of milliQ water. Concerning plasma, 25 µL were spiked with 1 µL of 10 µg/mL of IS and processed in the same way as tumors. The reconstituted tumors and plasma extracts were analyzed by injecting 2 µL in a UHPLC System connected to a LCMS-8060 (Shimadzu Scientific Instruments, Columbia, MD, USA) with a dual ion source. […] The mass spectrometer worked with an electrospray ionization source operating both in the negative and positive Multiple Reaction Monitoring mode, quantifying target ions m/z 264→59.25 for gemcitabine (positive), m/z 502→158.9 for dFdCTP (negative), m/z 263.1→220 for dFdU (negative), and m/z 228.1→112.05 for IS (positive). The lower limit of quantitation (LOQ) was 0.2 ng/mg for gemcitabine, 0.4 ng/mg for dFdU, and 0.5 ng/mg for dFdCTP in tumor samples, while it was 0.01 µg/mL for gemcitabine and 0.02 µg/mL for dFdU in plasma samples.

FC1199 cells = assay: FC1199 proliferation assay (crystal violet); type: cell-based, murine; details: Mus musculus, 72 h, 72 h incubation, mean and SD of two experiments, read-out: IC50 of gemcitabine on FC1199 cell proliferation
Procedure: FC1199 were seeded into 96-well plates in DMEM supplemented with 5% FCS. At 24 h after seeding, cells were exposed to increasing concentrations of BLR100 and BLR200 alone or in combination with increasing concentrations of gemcitabine. After a 72 h incubation, cells were fixed and stained with crystal violet solution (Sigma–Aldrich, Merck Life Science, Milano, Italy). The staining was eluted with a 1:1 ethanol/0.1 M sodium citrate solution, and the absorbance at 595 nm was measured. Each condition was tested in triplicate.

FC1199 orthotopic tumors = assay: Orthotopic FC1199 PDAC model: tumor burden (pancreas weight) and ascites; type: in vivo, C57BL/6 mice; details: peptides 4.5 µg/kg i.p. from day 11 or gemcitabine 40 mg/kg i.v.; n = 7
Procedure: Six- to eight-week old female C57BL/6 mice (Charles River Laboratories, Lecco, Italy) were maintained under specific-pathogen-free conditions, with constant temperature and humidity, and handled using aseptic procedures. FC1199 cells (5 × 10^4) were implanted orthotopically in the pancreas as described. Gemcitabine was administered i.v. at 40 mg/kg (see scheme in Figure 4A). Control groups received the same volume of vehicle. Mice were weighed every other day as a measure of drug toxicity. […] Tumor burden was evaluated at the end of the experiment, as pancreas weight. Peritoneal ascitic fluid was collected with a syringe and the volume recorded. Animals with a collectable peritoneal fluid (≥100 µL) were considered positive for ascites. Liver of mice were analyzed for macroscopic metastases, and no metastatic foci was detected in any group.

KPC tumor = details: LSL-KrasG12D/+;LSL-Trp53R172H/+;Pdx-1-Cre (KPC) mice; cited from earlier work
Description: (§1) CCN2 has recently been proposed as a target for PDAC therapy. […] FG-3019 (pamrevlumab) is currently in a Phase 3 clinical trial to evaluate its efficacy and safety as neoadjuvant treatment in combination with gemcitabine plus nab-paclitaxel in the treatment of locally advanced, unresectable pancreatic cancer.

PANC-1 orthotopic = PANC-1 orthotopic preclinical model; cited from earlier work
Description: as §1

Molecule: Nc1ccn([C@@H]2O[C@H](COP(=O)(O)OP(=O)(O)OP(=O)(O)O)[C@@H](O)C2(F)F)c(=O)n1 [dFdCTP, gemcitabine triphosphate]
- Concentration of the metabolite in tumors and plasma ([1]; gemcitabine 100 mg/kg i.v. single bolus, with or without BLR200 10 µg/kg, 30 min and 1 h, LOQ 0.5 ng/mg in tumor): undetectable in both groups

- Change of concentration (tumor/plasma ratio) in BLR200-treated mice [1]: small increase
Molecule: O=c1ccn([C@@H]2O[C@H](CO)[C@@H](O)C2(F)F)c(=O)[nH]1 [dFdU, 2′,2′-difluorodeoxyuridine]

- Change of concentration (tumor/plasma ratio) in BLR200-treated mice [1]: small increase
Molecule: Nc1ccn([C@@H]2O[C@H](CO)[C@@H](O)C2(F)F)c(=O)n1 [gemcitabine, Gemcitabine]
- IC50 (FC1199 cells; gemcitabine alone, DMEM 5% FCS, absorbance 595 nm): 13.5 ± 4.6 nM
- IC50 (FC1199 cells; gemcitabine with BLR100 20 nM): 13.2 ± 3.9 nM
- IC50 (FC1199 cells; gemcitabine with BLR100 100 nM): 11.9 ± 3.7 nM
- Effect on tumor growth as monotherapy, late start (FC1199 orthotopic tumors): only a marginal effect on tumor growth

B1: FG-3019: CCN2-targeting mAb (antibody, chains of the INN, looked up, V domains shown)
VH: EGQLVQSGGGLVHPGGSLRLSCAGSGFTFSSYGMHWVRQAPGKGLEWVSGIGTGGGTYSTDSVKGRFTISRDNAKNSLYLQMNSLRAEDMAVYYCARGDYYGSGSFFDCWGQGTLVTVSS
VL: DIQMTQSPSSLSASVGDRVTITCRASQGISSWLAWYQQKPEKAPKSLIYAASSLQSGVPSRFSGSGSGTDFTLTISSLQPEDFATYYCQQYNSYPPTFGQGTKLEIK
- Tumor response to gemcitabine (KPC tumor): enhanced tumor response
- Tumor growth and metastasis (PANC-1 orthotopic): inhibited tumor growth and metastasis
